Where a SMILES comes first, the peptide text is derived from it. The star is where a group is joined. Cbz = O=C(OCc1ccccc1)*
Target: T1, 20S proteasome (Trypanosoma cruzi, UniProt V5BU39)
T1 construct: gene TCDM_03188; ATP in assay, so 20S and 26S forms not separated; with Proteasome subunit beta type-1; Proteasome subunit beta type-2; Proteasome subunit beta type-3; Proteasome subunit beta type-4; Proteasome subunit beta type-7; Proteasome subunit alpha type-1; Proteasome subunit alpha type-2; Proteasome subunit alpha type-3; Proteasome subunit alpha type-4; Proteasome subunit alpha type-5; Proteasome subunit alpha type-6; Proteasome subunit alpha type-7
Assay: fluorimetric peptidase assay in crude extract
Type: biochemical
Settings: read-out: % inhibition at 50 μM (chymotrypsin-like activity)

Molecule CC(C)C[C@@H](C=O)NC(=O)[C@H](CC(C)C)NC(=O)[C@H](CC(C)C)NC(=O)OCc1ccccc1 [MG132] (Cbz-Leu-Leu-Leu-aldehyde) has an inhibition at 50 µM of 95%.

— PMC3117861, “Analysis of Proteasomal Proteolysis during the In Vitro Metacyclogenesis of Trypanosoma cruzi” (PLoS ONE, 2011)
